This passage reports IC50 results from ChEMBL document CHEMBL3120132, “Antiviral compounds for the treatment of HCV” (ACS Med Chem Lett, 2014).

Each structure is given as a SMILES string.

This assay concerns Hepatitis C virus. The assay is described as follows: Antiviral activity against Hepatitis C virus Con1 genotype 1b expressing NS3 infected in human 2209-23 cells assessed as inhibition of viral replication after 72 hrs by luciferase reporter gene assay. In kind it is functional, organism-based, Hepacivirus hominis. The conditions noted are these: isolate Con1, 2209-23, 72 h.
Turning to `CCOC(=O)[C@@H]1C[C@H](NC(=O)c2ccc3ccccc3c2O)CN1CC(C)C`, the IC50 was determined as 0.055 nM.
With `CCOC(=O)[C@@H]1C[C@H](NC(=O)c2ccc3ccccc3c2O)CN1CC1CCC1` the figure was 0.052 nM; with `CCOC(=O)[C@@H]1C[C@H](NC(=O)c2ccc3ccccc3c2O)CN1CC1CCCC1`, 0.029 nM.
Next, `COC(=O)[C@@H]1C[C@H](NC(=O)c2ccc3ccccc3c2O)CN1Cc1ccccc1`: 0.079 nM; `COC(=O)[C@@H]1C[C@H](NC(=O)c2ccc3ccccc3c2O)CN1CCC(C)(C)C`: 0.051 nM.
With `COC(=O)[C@@H]1C[C@H](NC(=O)c2ccc3ccccc3c2O)CN1CC1CCCCC1` the figure was 0.047 nM.
